From PubChem BioAssay (NCI) come the findings set out here.

Test systems include HOP-62 NSCLC; MDA-MB-231 breast; NCI/ADR-RES ovarian; OVCAR-5 ovarian; RPMI-8226 leukemia; SF-539 CNS; SK-MEL-2 melanoma; SK-MEL-28 melanoma; SK-MEL-5 melanoma; SR leukemia.
What all share (experiment): NCI-60 cell line screen, 48 h

Values joined by “and” are separate entries in the source; they are usually repeats but may differ in a detail not shown here. Equal values may be shown once.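 Cells were grown in 96-well plates and exposed to each compound for 48 hours at five concentrations; endpoints were interpolated linearly between bracketing concentrations, or set to the highest concentration if not reached. GI50 = concentration required for 50% inhibition of growth. TGI: total growth inhibition.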

Turning to `COc1ccc(S(=O)(=O)Nc2cc(/C=C\c3cc(OC)c(OC)c(OC)c3)ccc2OC)cc1`, the GI50 with HOP-62 NSCLC was 0.041 µM; with MDA-MB-231 breast, 0.399 µM; in the test on NCI/ADR-RES ovarian, 0.0711 µM; in the test with OVCAR-5 ovarian, 0.323 µM; in the test on RPMI-8226 leukemia it was 0.319 µM; with SF-539 CNS it was 0.126 µM. Moreover, the GI50 in the test with SK-MEL-2 melanoma was 0.0803 µM; in the test on SK-MEL-28 melanoma, 0.143 µM; in the test on SK-MEL-5 melanoma, 0.0488 µM; in the test with SR leukemia it was 0.0709 µM. The TGI in the test on HOP-62 NSCLC was above 100 µM; with MDA-MB-231 breast, above 100 µM; with NCI/ADR-RES ovarian, 30.8 µM; in the test on OVCAR-5 ovarian, above 100 µM; in the test with RPMI-8226 leukemia, 3.83 µM; in the test with SF-539 CNS it was 0.713 µM. The TGI in the test with SK-MEL-2 melanoma is 93 µM; in the test with SK-MEL-28 melanoma, above 100 µM; in the test on SK-MEL-5 melanoma it was 0.778 µM; with SR leukemia it was 4.18 µM.
For the molecule `C=C1C(=O)O[C@H]2[C@H](OC(C)=O)[C@@H](C)CCC/C(C)=C/CC[C@@]3(C)O[C@@H]3C[C@@H]12`, the TGI in the test on HOP-62 NSCLC is 43.6 µM; in the test on MDA-MB-231 breast, 10.6 µM; in the test with NCI/ADR-RES ovarian, 4 µM; in the test on OVCAR-5 ovarian it was 27.6 µM; in the test on RPMI-8226 leukemia it was 6.5 µM; in the test on SF-539 CNS, 13.9 µM. For the same molecule, the TGI with SK-MEL-2 melanoma was found to be 19.5 µM; with SK-MEL-28 melanoma, 11.1 µM; in the test with SK-MEL-5 melanoma, 15.5 µM; in the test with SR leukemia, 6.02 µM.
With `COc1cc(/C=C/C(=O)c2c(C)nc3ccccc3c2/C=C/c2ccc(C)cc2)cc(OC)c1OC`, the GI50 with HOP-62 NSCLC was 3.1 µM; in the test on MDA-MB-231 breast it was 2.14 µM; in the test with NCI/ADR-RES ovarian, 2.48 µM; in the test on OVCAR-5 ovarian it was 2.18 µM; in the test on RPMI-8226 leukemia it was 2.56 µM; in the test with SF-539 CNS, 1.92 µM. Besides, the GI50 was 2.11 µM in the test with SK-MEL-2 melanoma, 2.02 µM in the test on SK-MEL-28 melanoma, 1.75 µM with SK-MEL-5 melanoma and 2 µM with SR leukemia. Also, the TGI was 9.94 µM in the test on HOP-62 NSCLC; 5.23 µM in the test on MDA-MB-231 breast; 7.78 µM with NCI/ADR-RES ovarian; 5.38 µM in the test with OVCAR-5 ovarian; 7.87 µM in the test with RPMI-8226 leukemia; 3.69 µM with SF-539 CNS. Moreover, the TGI is 5.05 µM in the test on SK-MEL-2 melanoma, 3.91 µM with SK-MEL-28 melanoma, 3.24 µM with SK-MEL-5 melanoma and 9.11 µM with SR leukemia.
On to `Nc1c([N+](=O)[O-])cc2c3c(cccc13)CC2`, for which the TGI with HOP-62 NSCLC, in the test on MDA-MB-231 breast, with NCI/ADR-RES ovarian, in the test on OVCAR-5 ovarian, with RPMI-8226 leukemia and with SF-539 CNS was above 100 µM in each case. Moreover, the TGI in the test with SK-MEL-2 melanoma, with SK-MEL-28 melanoma, in the test on SK-MEL-5 melanoma and in the test on SR leukemia was above 100 µM throughout.
For the molecule `COc1ccc(-n2cc(-c3cc(OC)c(OC)c(OC)c3)nc2SCc2ccccc2)cc1OC`, the GI50 was above 100 µM in the test on HOP-62 NSCLC; above 63.6 µM in the test on MDA-MB-231 breast; above 100 µM with NCI/ADR-RES ovarian; above 100 µM with OVCAR-5 ovarian; 25.8 µM with RPMI-8226 leukemia; above 100 µM with SF-539 CNS. Further, the GI50 in the test with SK-MEL-2 melanoma is above 100 µM; in the test with SK-MEL-28 melanoma it was above 100 µM; with SK-MEL-5 melanoma, 15.6 µM; with SR leukemia, 44.1 µM. In addition, the TGI in the test with HOP-62 NSCLC, in the test on MDA-MB-231 breast, in the test with NCI/ADR-RES ovarian, in the test on OVCAR-5 ovarian, in the test on RPMI-8226 leukemia and with SF-539 CNS was above 100 µM in each case. For the same molecule, the TGI in the test on SK-MEL-2 melanoma, in the test with SK-MEL-28 melanoma, with SK-MEL-5 melanoma and in the test with SR leukemia was above 100 µM each time.
For the molecule `S=c1ssc(Oc2ccccc2)c1Cl`, the GI50 in the test with HOP-62 NSCLC is 37 µM; with MDA-MB-231 breast, 14.2 µM; with NCI/ADR-RES ovarian, 16.4 µM; in the test with OVCAR-5 ovarian it was 23.2 µM; in the test on RPMI-8226 leukemia it was 0.95 µM; in the test on SF-539 CNS, 17.3 µM. Also, the GI50 in the test on SK-MEL-2 melanoma is 33.9 µM; in the test with SK-MEL-28 melanoma it was 11.9 µM; with SK-MEL-5 melanoma it was 17.3 µM; with SR leukemia, 0.605 µM. Also, the TGI in the test with HOP-62 NSCLC was above 100 µM; in the test with MDA-MB-231 breast it was 29.6 µM; in the test with NCI/ADR-RES ovarian, 35.4 µM; in the test with OVCAR-5 ovarian, 49.9 µM; in the test on RPMI-8226 leukemia, 7.7 µM; with SF-539 CNS, 33.8 µM. Besides, the TGI is 83.3 µM in the test on SK-MEL-2 melanoma, 32 µM in the test on SK-MEL-28 melanoma, 35.1 µM in the test with SK-MEL-5 melanoma and above 100 µM in the test with SR leukemia.
`Oc1ccccc1C=Nc1nc(SCc2ccccc2)nc2[nH]ncc12`: the GI50 with HOP-62 NSCLC was above 100 µM; in the test on MDA-MB-231 breast it was 29.2 µM; in the test with NCI/ADR-RES ovarian, 43.8 µM; with OVCAR-5 ovarian, above 100 µM; in the test with RPMI-8226 leukemia, 30.8 µM; with SF-539 CNS, above 100 µM. Moreover, the GI50 in the test on SK-MEL-2 melanoma is above 100 µM; in the test with SK-MEL-28 melanoma, 82.8 µM; in the test with SK-MEL-5 melanoma, 11.9 µM; in the test on SR leukemia, 22.5 µM. The TGI in the test on HOP-62 NSCLC, in the test on MDA-MB-231 breast, with NCI/ADR-RES ovarian, with OVCAR-5 ovarian, in the test on RPMI-8226 leukemia and in the test on SF-539 CNS was above 100 µM throughout. Further, the TGI with SK-MEL-2 melanoma is above 100 µM; in the test with SK-MEL-28 melanoma, above 100 µM; in the test with SK-MEL-5 melanoma it was 26.3 µM; in the test on SR leukemia, above 100 µM.
In the case of `Oc1ccccc1CNCC12CC3CC(CC(C3)C1)C2`, the GI50 in the test on HOP-62 NSCLC was 28.8 µM; with MDA-MB-231 breast, 27.7 µM; in the test on NCI/ADR-RES ovarian it was 40.4 µM; in the test with OVCAR-5 ovarian, 33 µM; in the test on RPMI-8226 leukemia, 18.1 µM; in the test on SF-539 CNS, 33.3 µM. In addition, the GI50 in the test on SK-MEL-2 melanoma was 20.2 µM; in the test on SK-MEL-28 melanoma, 23.6 µM; with SK-MEL-5 melanoma, 13.5 µM; in the test on SR leukemia, 20.4 µM. Also, the TGI with HOP-62 NSCLC was 84 µM; with MDA-MB-231 breast, above 100 µM; in the test with NCI/ADR-RES ovarian, above 100 µM; in the test with OVCAR-5 ovarian, above 100 µM; with RPMI-8226 leukemia, 45 µM; in the test with SF-539 CNS, above 100 µM. The TGI came out at 41.2 µM in the test on SK-MEL-2 melanoma, 52.7 µM in the test on SK-MEL-28 melanoma, 26.9 µM in the test on SK-MEL-5 melanoma and 58.6 µM in the test with SR leukemia.
In the case of `COc1cc2c(cc1OCCCCCOc1ccc(-n3c(C)nc4ccccc4c3=O)cc1)N=C[C@@H]1CCCN1C2=O`, the GI50 was 0.23 µM in the test with HOP-62 NSCLC; 0.188 µM in the test with MDA-MB-231 breast; 1.96 µM in the test on NCI/ADR-RES ovarian; 0.281 µM in the test with OVCAR-5 ovarian; 0.204 µM in the test with RPMI-8226 leukemia; 0.285 µM with SF-539 CNS. Besides, the GI50 is 0.377 µM with SK-MEL-2 melanoma, 0.27 µM in the test on SK-MEL-28 melanoma, 0.176 µM in the test on SK-MEL-5 melanoma and 0.11 µM in the test on SR leukemia. Besides, the TGI with HOP-62 NSCLC came to 0.524 µM; in the test with MDA-MB-231 breast, 0.636 µM; in the test on NCI/ADR-RES ovarian, 6.31 µM; in the test on OVCAR-5 ovarian, 0.678 µM; in the test on RPMI-8226 leukemia, 0.545 µM; with SF-539 CNS, 0.728 µM. The TGI is 1.25 µM in the test on SK-MEL-2 melanoma, 0.853 µM in the test with SK-MEL-28 melanoma, 0.353 µM with SK-MEL-5 melanoma and 0.393 µM with SR leukemia.
Consider `CC1(O)CC(c2nc(-c3ccc4ccc(-c5ccccc5)nc4c3)c3c(N)nccn23)C1` (stereo not given), for which the GI50 was 5.75 µM and 7.35 µM in the test with HOP-62 NSCLC; 6.97 µM and 5.12 µM in the test on MDA-MB-231 breast; 10.6 µM and > 10 µM with NCI/ADR-RES ovarian; 12.1 µM and > 10 µM in the test with OVCAR-5 ovarian; 6.55 µM and 3.98 µM in the test with RPMI-8226 leukemia; 11.9 µM and > 10 µM in the test on SF-539 CNS. For the same molecule, the GI50 in the test on SK-MEL-2 melanoma is 10.1 µM and 6.63 µM; in the test with SK-MEL-28 melanoma it was 12 µM and > 10 µM; in the test on SK-MEL-5 melanoma, 3.38 µM; in the test with SR leukemia it was 15.7 µM and 7.92 µM. For the same molecule, the TGI in the test on HOP-62 NSCLC is 50.6 µM and > 10 µM; in the test with MDA-MB-231 breast, 38.1 µM and > 10 µM; in the test on NCI/ADR-RES ovarian, 96.9 µM and > 10 µM; in the test on OVCAR-5 ovarian it was 44.7 µM and > 10 µM; in the test on RPMI-8226 leukemia, 31.9 µM and > 10 µM; with SF-539 CNS it was 28.8 µM and > 10 µM. For the same molecule, the TGI was 60.6 µM and > 10 µM in the test with SK-MEL-2 melanoma; 44.3 µM and > 10 µM in the test on SK-MEL-28 melanoma; 14.9 µM with SK-MEL-5 melanoma; above 75.2 µM in the test with SR leukemia.
For the molecule `C=C1C(=O)O[C@H]2[C@H]1CCC(/C=N/c1ncc(Br)cc1N)=C\CC[C@@]1(C)O[C@@H]21`, the GI50 was 10.8 µM in the test with HOP-62 NSCLC; 1.38 µM in the test on MDA-MB-231 breast; 3.11 µM in the test on NCI/ADR-RES ovarian; 3.2 µM with OVCAR-5 ovarian; 1.13 µM in the test on RPMI-8226 leukemia; 2.06 µM in the test on SF-539 CNS. In addition, the GI50 with SK-MEL-2 melanoma was 1.96 µM; in the test on SK-MEL-28 melanoma it was 2.37 µM; in the test on SK-MEL-5 melanoma, 1.55 µM; with SR leukemia it was 1.32 µM. Besides, the TGI in the test on HOP-62 NSCLC worked out at 24 µM; in the test with MDA-MB-231 breast, 3.46 µM; in the test on NCI/ADR-RES ovarian, 21.9 µM; in the test with OVCAR-5 ovarian, 11.5 µM; with RPMI-8226 leukemia, 5.01 µM; with SF-539 CNS, 6.82 µM. For the same molecule, the TGI worked out at 4.87 µM in the test on SK-MEL-2 melanoma, 6.07 µM in the test on SK-MEL-28 melanoma, 3.01 µM in the test on SK-MEL-5 melanoma and 7.68 µM in the test with SR leukemia.
